Among the data in doi:10.1101/2024.04.15.589505v1 (biorxiv, 2024) are IC50 and Kd values, retold here.

The target in experiment [1] is T1, DENV2 protease (DENV2pro; DENV serotype 2 NS2B-NS3 protease construct, GGGGSGGGG-linked) (Dengue virus 2 Thailand/16681/84, UniProt P29990). Kind of experiment: biochemical.
For experiment [2], the target named is T1, DENV2 protease (DENV2pro; DENV serotype 2 NS2B-NS3 protease construct, GGGGSGGGG-linked). Kind of experiment: biochemical. The format is binding.

T1 sequence (P29990 1394-1440 limits assumed): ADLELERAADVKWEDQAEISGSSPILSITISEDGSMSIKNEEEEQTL
T1 sequence (P29990 1476-1660 limits assumed): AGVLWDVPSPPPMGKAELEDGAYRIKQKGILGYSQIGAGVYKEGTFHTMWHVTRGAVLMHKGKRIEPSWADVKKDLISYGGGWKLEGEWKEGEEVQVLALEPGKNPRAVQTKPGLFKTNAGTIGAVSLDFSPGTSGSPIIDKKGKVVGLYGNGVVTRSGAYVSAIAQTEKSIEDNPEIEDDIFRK

For orientation: IC50 means the concentration at which inhibition is half-maximal. Low values mean inhibition by little substance, high ones a need for much substance. `CC(C)(C)NC(=O)C(=O)/C=C/c1c[nH]c2ccccc12` [compound 5] came in with an IC50 in experiment [1] of 37.1 ± 1.29 µM.

Turning to `N=C(N)NCCC[C@H](NC(=O)[C@H](CCCNC(=N)N)NC(=O)c1ccccc1)B(O)O` [compound 1], half-maximal inhibition in experiment [1] (IC50) was put at 0.68 ± 0.01 µM.

The compound `NC(=O)c1cccc(NC(=O)[C@@H](NC(=O)c2ccc(Oc3ccccc3)cc2)c2ccc(OCc3ccccc3)cc2)c1` [compound 4] came in with an IC50 in experiment [1] of 5.37 ± 0.73 µM.

The compound `CCCCCC(=O)N[C@H](C(=O)NCc1ccc(NC(=N)N)cc1)c1ccc(OCc2ccccc2)cc1` [compound 3] yielded an IC50 in experiment [1] of 17.6 ± 2.15 µM.

By Kd is commonly meant the constant that tells how readily two partners part at equilibrium. A low value points to higher affinity. In experiment [2], `NC(=O)c1ccc(CNC(=O)[C@@H](NC(=O)c2ccc(-c3cccs3)s2)c2ccc(OCc3ccccc3)cc2)cc1` [compound 23] displayed a Kd of 2.4 ± 0.6 µM.
